ChEMBL document CHEMBL3044672, “N9- and N7-(Chloromethyl Phenymethyl)Chloropurine Derivatives from , '-Dichloroxylenes: Synthesis and Anticancer Activity” (2005)

What was measured:
Format in all cases: functional
IGROV-1 = experiment: Cytotoxicity against Homo sapiens (human) IGROV1 cells after 48 hr by sulforhodamine B assay; conditions: IGROV-1, 48 h
CCRF-CEM = experiment: Cytotoxicity against Homo sapiens (human) CCRF-CEM cells after 48 hr by sulforhodamine B assay
SF-539 = experiment: Cytotoxicity against Homo sapiens (human) SF539 cells after 48 hr by sulforhodamine B assay; conditions: SF-539, 48 h
DU-145 = experiment: Cytotoxicity against Homo sapiens (human) DU145 cells after 48 hr by sulforhodamine B assay; conditions: DU-145, 48 h
OVCAR-3 = experiment: Cytotoxicity against Homo sapiens (human) OVCAR3 cells after 48 hr by sulforhodamine B assay; conditions: OVCAR-3, 48 h
UACC-62 = experiment: Cytotoxicity against Homo sapiens (human) UACC62 cells after 48 hr by sulforhodamine B assay; conditions: UACC-62, 48 h
HCT-15 = experiment: Cytotoxicity against Homo sapiens (human) HCT15 cells after 48 hr by sulforhodamine B assay; conditions: HCT-15, 48 h
SK-OV-3 = experiment: Cytotoxicity against Homo sapiens (human) SKOV3 cells after 48 hr by sulforhodamine B assay; conditions: SK-OV-3, 48 h
T47D = experiment: Cytotoxicity against Homo sapiens (human) T47D cells after 48 hr by sulforhodamine B assay
SF-268 = experiment: Cytotoxicity against Homo sapiens (human) SF268 cells assessed as cell growth at 10^-4 M after 48 hr by […] assay; conditions: SF-268, 48 h, read-out: Activity
PC-3 = experiment: Cytotoxicity against Homo sapiens (human) PC3 cells after 48 hr by sulforhodamine B assay; conditions: PC-3, 48 h
KM12 = experiment: Cytotoxicity against Homo sapiens (human) KM12 cells after 48 hr by sulforhodamine B assay; conditions: KM12, 48 h
RXF 393 = experiment: Cytotoxicity against Homo sapiens (human) RXF393 cells after 48 hr by sulforhodamine B assay; conditions: RXF 393, 48 h
SW-620 = experiment: Cytotoxicity against Homo sapiens (human) SW620 cells after 48 hr by sulforhodamine B assay; conditions: SW-620, 48 h
SK-MEL-5 = experiment: Cytotoxicity against Homo sapiens (human) SK-MEL-5 cells after 48 hr by sulforhodamine B assay; conditions: SK-MEL-5, 48 h
EKVX = experiment: Cytotoxicity against Homo sapiens (human) EKVX cells after 48 hr by sulforhodamine B assay
HOP-62 = experiment: Cytotoxicity against Homo sapiens (human) HOP62 cells after 48 hr by sulforhodamine B assay; conditions: HOP-62, 48 h
A498 = experiment: Cytotoxicity against Homo sapiens (human) A498 cells after 48 hr by sulforhodamine B assay; conditions: A498, 48 h
UO-31 = experiment: Cytotoxicity against Homo sapiens (human) UO31 cells after 48 hr by sulforhodamine B assay; conditions: UO-31, 48 h
MOLT-4 = experiment: Cytotoxicity against Homo sapiens (human) MOLT4 cells after 48 hr by sulforhodamine B assay; conditions: MOLT-4, 48 h
HCT-116 = experiment: Cytotoxicity against Homo sapiens (human) HCT116 cells after 48 hr by sulforhodamine B assay; conditions: HCT-116, 48 h
SK-MEL-2 = experiment: Cytotoxicity against Homo sapiens (human) SK-MEL-2 cells after 48 hr by sulforhodamine B assay; conditions: SK-MEL-2, 48 h
RPMI-8226 = experiment: Cytotoxicity against Homo sapiens (human) RPMI8226 cells after 48 hr by sulforhodamine B assay; conditions: RPMI-8226, 48 h
HCC 2998 = experiment: Cytotoxicity against Homo sapiens (human) HCC2998 cells after 48 hr by sulforhodamine B assay; conditions: HCC 2998, 48 h
OVCAR-4 = experiment: Cytotoxicity against Homo sapiens (human) OVCAR4 cells after 48 hr by sulforhodamine B assay; conditions: OVCAR-4, 48 h
786-0 = experiment: Cytotoxicity against Homo sapiens (human) 786-0 cells after 48 hr by sulforhodamine B assay; conditions: 786-0, 48 h
MDA-MB-231 = experiment: Cytotoxicity against Homo sapiens (human) MDA-MB-231 cells after 48 hr by sulforhodamine B assay; conditions: MDA-MB-231, 48 h
A549 = experiment: Cytotoxicity against Homo sapiens (human) A549 cells after 48 hr by sulforhodamine B assay; conditions: A549, 48 h
ACHN = experiment: Cytotoxicity against Homo sapiens (human) ACHN cells after 48 hr by sulforhodamine B assay
NCI-H322M = experiment: Cytotoxicity against Homo sapiens (human) NCI-H322M cells after 48 hr by sulforhodamine B assay
LOX IMVI = experiment: Cytotoxicity against Homo sapiens (human) LOXIMVI cells after 48 hr by sulforhodamine B assay
SF-295 = experiment: Cytotoxicity against Homo sapiens (human) SF295 cells after 48 hr by sulforhodamine B assay; conditions: SF-295, 48 h
[1] = read-out: LC50 (the source's name)

Work on `ClCc1cccc(Cn2cnc3ncnc(Cl)c32)c1` yielded a GI50 (IGROV-1) of 3.38 µM, an LC50 (IGROV-1) of 5.88 µM and a TGI (IGROV-1) of 13.8 µM. For the same molecule, the GI50 (CCRF-CEM) was 6.91 µM, the TGI (CCRF-CEM) was 22.4 µM and the CC50 (CCRF-CEM; [1]) was 60.2 µM. It also gave a GI50 (SF-539) of 19.9 µM, a TGI (SF-539) of 36.3 µM and a GI50 (DU-145) of 15.1 µM. It also gave a TGI (DU-145) of 30.9 µM, a GI50 (OVCAR-3) of 1.77 µM and an LC50 (OVCAR-3) of 43.6 µM. It also gave a TGI (OVCAR-3) of 3.23 µM, a GI50 (UACC-62) of 2.18 µM and an LC50 (concentration causing 50% net cell kill) (UACC-62) of 38.9 µM. For the same molecule, the TGI (UACC-62) was 5.37 µM, the GI50 (HCT-15) was 1.94 µM and the TGI (HCT-15) was 4.36 µM. For the same molecule, the CC50 (HCT-15; [1]) was over 100 µM, the GI50 (SK-OV-3) was 10.7 µM and the LC50 (SK-OV-3) was 8.12 µM. For the same molecule, the TGI (SK-OV-3) was 25.7 µM, the GI50 (T47D) was 0.21 µM and the LC50 (T47D) was 2.88 µM. It also gave a TGI (T47D) of 0.5 µM, a growth at 100 µM (SF-268) of 0% and a GI50 (PC-3) of 2.13 µM. The LC50 (concentration causing 50% cell kill) (PC-3) was 63.1 µM, the TGI (PC-3) was 5.37 µM and the GI50 (KM12) was 1.86 µM. For the same molecule, the TGI (KM12) was 3.31 µM, the CC50 (KM12; [1]) was 67.6 µM and the GI50 (RXF 393) was 2.04 µM. For the same molecule, the TGI (RXF 393) was 17.4 µM, the CC50 (RXF 393; [1]) was 47.9 µM and the GI50 (SW-620) was 15.1 µM. For the same molecule, the TGI (SW-620) was 32.4 µM, the CC50 (SW-620; [1]) was 7.41 µM and the GI50 (SK-MEL-5) was 4.67 µM. For the same molecule, the LC50 (SK-MEL-5) was 45.7 µM, the TGI (SK-MEL-5) was 18.2 µM and the GI50 (EKVX) was 13.8 µM. The TGI (EKVX) was 29.5 µM, the CC50 (EKVX; [1]) was 64.6 µM and the GI50 (HOP-62) was 2.18 µM. It also gave a TGI (HOP-62) of 3.98 µM, a CC50 (HOP-62; [1]) of 7.41 µM and a GI50 (A498) of 18.2 µM. For the same molecule, the LC50 (lethal concentration, 50% cell kill) (A498) was 6.6 µM, the TGI (A498) was 36.3 µM and the GI50 (UO-31) was 1.54 µM. For the same molecule, the LC50 (concentration causing 50% net cell kill) (UO-31) was 26.9 µM, the TGI (UO-31) was 3.09 µM and the GI50 (MOLT-4) was 10.7 µM. For the same molecule, the TGI (MOLT-4) was 29.5 µM, the CC50 (MOLT-4; [1]) was 81.3 µM and the GI50 (HCT-116) was 1.77 µM. For the same molecule, the TGI (HCT-116) was 5.24 µM, the CC50 (HCT-116; [1]) was 9.54 µM and the GI50 (SK-MEL-2) was 5.75 µM. The LC50 (concentration killing 50% of cells) (SK-MEL-2) was 6.76 µM, the TGI (SK-MEL-2) was 22.9 µM and the GI50 (RPMI-8226) was 13.8 µM. It also gave a TGI (RPMI-8226) of 34.7 µM, a CC50 (RPMI-8226; [1]) of 89.1 µM and a GI50 (HCC 2998) of 1.69 µM. The TGI (HCC 2998) was 3.23 µM, the CC50 (HCC 2998; [1]) was 40.7 µM and the GI50 (OVCAR-4) was 4.16 µM. The LC50 (concentration killing 50% of cells) (OVCAR-4) was 46.8 µM, the TGI (OVCAR-4) was 15.8 µM and the GI50 (786-0) was 2.04 µM. It also gave an LC50 (786-0) of 70.8 µM, a TGI (786-0) of 4.07 µM and a GI50 (MDA-MB-231) of 1.73 µM. It also gave an LC50 (MDA-MB-231) of 6.76 µM, a TGI (MDA-MB-231) of 3.38 µM and a GI50 (A549) of 17.4 µM. For the same molecule, the TGI (A549) was 39.8 µM, the CC50 (A549; [1]) was 91.2 µM and the GI50 (ACHN) was 1.86 µM. The TGI (ACHN) was 3.54 µM, the CC50 (ACHN; [1]) was 7.76 µM and the GI50 (NCI-H322M) was 1.99 µM. For the same molecule, the TGI (NCI-H322M) was 3.46 µM, the CC50 (NCI-H322M; [1]) was 8.54 µM and the GI50 (LOX IMVI) was 3.09 µM. It also gave an LC50 (LOX IMVI) of 43.6 µM, a TGI (LOX IMVI) of 14.1 µM and a GI50 (SF-295) of 6.3 µM. The TGI (SF-295) was 19.1 µM and the CC50 (SF-295; [1]) was 64.6 µM.
